Test results reported in paper PMC4423513, “Function of glutathione peroxidases in legume root nodules” (Journal of Experimental Botany, 2015).

Tests used:
LjGpx1 = biological target: T1, LjGpx1 (Lotus japonicus, UniProt Q56VU1); test: NADPH oxidation at […] nm, thioredoxin-coupled, steady state; format: biochemical; conditions: apparent Km; 20 μM poplar Trxh1, 1 μM A. thaliana NADPH-Trx reductase, 0.4 mM NADPH, 30 mM Tris-HCl pH 8.0, 1 mM EDTA; acyl chains of lipid not defined
T1 sequence (Q56VU1 72-236): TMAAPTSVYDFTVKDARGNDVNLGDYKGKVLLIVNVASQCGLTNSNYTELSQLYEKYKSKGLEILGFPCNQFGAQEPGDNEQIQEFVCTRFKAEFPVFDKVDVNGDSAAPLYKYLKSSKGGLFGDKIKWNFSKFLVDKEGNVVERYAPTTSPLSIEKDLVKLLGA

LjGpx3 = test: as above; format: biochemical, Lotus japonicus; conditions: apparent Km, 20 μM poplar Trxh1, 1 μM A. thaliana NADPH-Trx reductase, 0.4 mM NADPH, 30 mM Tris-HCl pH 8.0, 1 mM EDTA

Compound	Km (LjGpx1) [µM]	Km (LjGpx3; acyl chains of lipid not defined) [µM]	Km (LjGpx3) [µM]
Phosphatidylcholine hydroperoxide	1.6	1.6	–
CC(C)(OO)c1ccccc1 [Cumene hydroperoxide]	–	–	214
CC(C)(C)OO [t-Butyl hydroperoxide]	–	–	167
